{
  "source": "paper PMC5602130",
  "about": "“Food and Sex-Related Impacts on the Pharmacokinetics of a Single-Dose of Ginsenoside Compound K in Healthy Subjects” (Frontiers in Pharmacology, 2017)",
  "key": {"[1]": {"assay": "Food-effect trial: cumulative excretion rate from urine (0-48 h)", "format": "in vivo, human", "conditions": "single oral 200 mg CK", "experimental": "The food-effect trial was an open-label, randomized, two-period, two-treatment crossover trial, carried out from 15 January to 31 March 2015. Subjects (n = 24) were admitted to the clinical facility (Center of Clinical Pharmacology, the Third Xiangya Hospital, Central South University, Changsha, China) and randomized to receive a single 200 mg oral dose of Ginsenoside CK Tablets (4 × 50 mg tablets) either after a 10 h-fasting period or within 30 min after beginning the consumption of a recommended high-fat, high calorie breakfast (150 calories of protein, 250 calories of carbohydrates, 500 to 600 calories of fat; total calories approximately 800–1,000). Tablets were administered with 250 mL of water, to each subject, in each treatment period. Drinking was prohibited for 2 h before and after medication. Apart from this, the amount and time of drinking were not strictly controlled. Subjects had unified, standard meals 4 and 10 h after drug administration. The alternate treatment was conducted after a 14-day washout period. Urine samples were collected 0–24 and 24–48 h after the administration and the volumes were measured immediately after collection. We preserved 8 mL in centrifuge tube for PK assessment, which were stored at −70°C before analysis. Descriptive statistics of PK parameters were calculated using established non-compartmental methods, utilizing the WinNonLin version 6.1 software (Pharsight Corporation, USA). The PK parameters determined for each participant included apparent terminal half-life (t1/2), maximum plasma concentration (Cmax), time to Cmax (tmax), area under the plasma concentration-time curve from the time of administration up to the last time point with a measurable concentration post-dose (AUClast), AUC extrapolated to infinity (AUCinf), apparent volume of distribution (V/F), apparent plasma clearance (CL/F) after extravascular administration, mean residence time (MRTlast and MRTinf), and the cumulative excretion rate from urine. The t1/2 was estimated as (ln2)/K, where K represented the slope of the terminal phase of plasma concentration-time profile and was assessed with a weighting factor of 1, using least squares (log-linear regression of at least three data points). The Cmax and tmax were obtained from experimental observations. The values of AUC were calculated using conventional trapezoidal and log-trapezoidal methods and the extrapolated area (Rowland and Tozer, [1995]). CL/F and V/F were calculated as dose/AUCinf and (CL/F)/K, respectively. MRT was calculated as MRT = AUMC/AUC, where AUMC is the area under the first moment curve. The cumulative excretion rate was calculated as the amount of unchanged drug over a time interval in the urine divided by dose, and was expressed as a percentage. The processing of urine samples was similar to that of plasma samples. […] For QC samples containing 2.00, 50.10, or 801.60 ng·mL^−1 CK were prepared using homogenic human urine with the mean bias ranged from −5.54 to 3.56%, while the CVs ranged from 1.38 to 4.89%."}, "[2]": {"assay": "Early clinical trial: sex differences of ginsenoside compound K pharmacokinetics (Supplementary Table 1)", "conditions": "human, in vivo; for Cmax: n = 12", "experimental": "Therefore, a secondary purpose of this trial is to investigate whether there are any differences in the pharmacokinetics of CK between males and females, and whether the findings are consistent with what was previously observed. This report described an open-label, single-center trial, designed as a two-period crossover study, performed on healthy Chinese subjects (n = 24) randomized to either the fasting overnight (FO) or the high-fat (HF) meal group, before receiving a single 200 mg dose of Ginsenoside CK Tablets. Consequently, this study also provides evidence for dosing regimens, for late-stage clinical studies and clinical applications. Supplementary Table 1. Sex differences of ginsenoside compound K in human (n = 12)."}, "[3]": {"set-up": "method as in Chen et al., [2014]", "conditions": "rats; ref Chen et al., [2014]; cited from earlier work"}, "[4]": {"assay": "Food-effect trial: safety assessments (adverse events, vital signs, ECG, laboratory tests)", "format": "in vivo, human", "experimental": "All available information on the study participants was included in the summaries of safety assessments, and must be recorded on the case-report form by investigators. The safety assessment took place throughout the project, and it included continuous observation of adverse events (AEs), monitoring of vital signs, 12-lead ECGs, hematological and biochemical analyses, and urinalysis. Specifically, the monitoring began the night before drug administration (at least 10 h), when subjects were admitted to the clinical facility, and continued for 96 h after dosing. ECGs were recorded prior to the administration and 1, 4, 12, 24, 48, 72, and 96 h after the administration of CK, as well as during physical examinations before and after the trial. Apart from investigators' review, data were also obtained from subjects by recounting or narrating themselves. Subsequently, AEs were classified by intensity into mild, moderate, and severe. A second classification of AEs, based on the relationship of AEs to the test drug, was performed, dividing them into positive, probable, possible, remote, or unrelated."}, "[5]": {"conditions": "Abnormal urine routine, possible related"}, "[6]": {"conditions": "Elevated creatine kinase, possible related"}, "[7]": {"conditions": "Elevated direct bilirubin, probable related"}, "[8]": {"conditions": "Elevated triglycerides, possible related"}, "[9]": {"conditions": "Upper respiratory tract infection, possible related"}},
  "note": "Marks after values point to notes of the source that are not given here.",
  "data": [
    {"smiles": "CC(C)=CCCC(C)(OC1OC(CO)C(O)C(O)C1O)C1CCC2(C)C1C(O)CC1C3(C)CCC(O)C(C)(C)C3CCC12C", "note": "[CK, 20-O-beta-D-glucopyranosyl-20(S)-protopanaxadiol]", "values": [
      {"measurement": "Cumulative excretion rate", "setting": "[1]; FO, female", "value": "0.083 ± 0.049", "unit": "%"},
      {"measurement": "Cumulative excretion rate", "setting": "[1]; FO, male", "value": "0.037 ± 0.029", "unit": "%"},
      {"measurement": "Cumulative excretion rate", "setting": "[1]; HF, all subjects", "value": "0.020 ± 0.015", "unit": "%"},
      {"measurement": "Cumulative excretion rate", "setting": "[1]; HF, female", "value": "0.019 ± 0.070", "unit": "%"},
      {"measurement": "Cumulative excretion rate", "setting": "[1]; HF, male", "value": "0.022 ± 0.020", "unit": "%"},
      {"measurement": "Cumulative excretion rate", "setting": "[1]; unchanged drug / dose, FO, all subjects", "value": "0.060 ± 0.046", "unit": "%"},
      {"measurement": "AUC(0-inf)", "setting": "[2]; female", "value": "4670 ± 2140", "unit": "ng·h/mL"},
      {"measurement": "AUC(0-t)", "setting": "[2]; female", "value": "4490 ± 2030", "unit": "ng·h/mL"},
      {"measurement": "Tmax", "setting": "[2]; female", "value": "2.58 ± 0.67", "unit": "h"},
      {"measurement": "half-life", "setting": "[2]; female", "value": "5.66 ± 2.04", "unit": "h"},
      {"measurement": "Cmax", "setting": "[2]; Female", "value": "873 ± 427", "unit": "ng/mL"},
      {"measurement": "Cmax", "setting": "[2]; Male", "value": "601 ± 183", "unit": "ng/mL"},
      {"measurement": "AUC(0-inf)", "setting": "[2]; male", "value": "3680 ± 1360", "unit": "ng·h/mL"},
      {"measurement": "AUC(0-t)", "setting": "[2]; male", "value": "3600 ± 1320", "unit": "ng·h/mL"},
      {"measurement": "Tmax", "setting": "[2]; male", "value": "3.19 ± 1.25", "unit": "h"},
      {"measurement": "half-life", "setting": "[2]; male", "value": "4.15 ± 1.9", "unit": "h"},
      {"measurement": "Dose exhibiting initial anti-inflammatory activity", "setting": "[3]", "value": 10, "unit": "mg/kg"},
      {"measurement": "Adverse events: Number of cases", "setting": "[4]; [5]", "value": "1^c"},
      {"measurement": "Adverse events: Percentage", "setting": "[4]; [5]", "value": 4.2, "unit": "%"},
      {"measurement": "Adverse events: Number of cases", "setting": "[4]; Bellyache, positive related", "value": "3^a"},
      {"measurement": "Adverse events: Percentage", "setting": "[4]; Bellyache, positive related", "value": 12.5, "unit": "%"},
      {"measurement": "Adverse events: Number of cases", "setting": "[4]; Diarrhea, probable related", "value": "1^b"},
      {"measurement": "Adverse events: Percentage", "setting": "[4]; Diarrhea, probable related", "value": 4.2, "unit": "%"},
      {"measurement": "Adverse events: Number of cases", "setting": "[4]; [6]", "value": "3^c"},
      {"measurement": "Adverse events: Percentage", "setting": "[4]; [6]", "value": 12.5, "unit": "%"},
      {"measurement": "Adverse events: Number of cases", "setting": "[4]; [7]", "value": "1^b"},
      {"measurement": "Adverse events: Percentage", "setting": "[4]; [7]", "value": 4.2, "unit": "%"},
      {"measurement": "Adverse events: Number of cases", "setting": "[4]; [8]", "value": "3^c"},
      {"measurement": "Adverse events: Percentage", "setting": "[4]; [8]", "value": 12.5, "unit": "%"},
      {"measurement": "Incidence of AEs classified as positive, probable and possible in relation to the test drug", "setting": "[4]; FO regimen", "value": 55.6, "unit": "%"},
      {"measurement": "Incidence of AEs classified as positive, probable and possible in relation to the test drug", "setting": "[4]; HF regimen", "value": 44.4, "unit": "%"},
      {"measurement": "Adverse events: Number of cases", "setting": "[4]; Hematuria, possible related", "value": "1^c"},
      {"measurement": "Adverse events: Percentage", "setting": "[4]; Hematuria, possible related", "value": 4.2, "unit": "%"},
      {"measurement": "Adverse events: Number of cases", "setting": "[4]; Nausea, probable related", "value": "1^b"},
      {"measurement": "Adverse events: Percentage", "setting": "[4]; Nausea, probable related", "value": 4.2, "unit": "%"},
      {"measurement": "Adverse events: Number of cases", "setting": "[4]; [9]", "value": "1^c"},
      {"measurement": "Adverse events: Percentage", "setting": "[4]; [9]", "value": 4.2, "unit": "%"},
      {"measurement": "Adverse events: Percentage", "setting": "[4]; Watery stool, positive related", "value": 16.7, "unit": "%"},
      {"measurement": "Adverse events: Number of cases", "setting": "[4]; Watery stool, positive related to ginsenoside compound K, 24 subjects", "value": "4^a"},
      {"measurement": "Intensity of AEs", "setting": "[4]; all AEs", "value": "mild"},
      {"measurement": "Instances of AEs recorded", "setting": "[4]; both treatments", "value": 19},
      {"measurement": "Number of subjects with AEs", "setting": "[4]; of 24 subjects", "value": 11},
      {"measurement": "Subjects with AEs (percentage)", "setting": "[4]; of 24 subjects, both treatments", "value": 45.8, "unit": "%"},
      {"measurement": "Abnormalities in physical examination, vital signs, ECGs, or standard clinical laboratory test results", "setting": "[4]; single 200 mg dose", "value": "not associated with any clinically significant abnormalities"}
    ]}
  ]
}
